In patent US9486461B2, “Methods and compositions for inducing apoptosis by stimulating ER stress” (UNIVERSITY OF SOUTHERN CALIFORNIA, priority 2007, dated 2016):

Columns and labels:
[1] = system: U87 glioblastoma tumors; assay: Tumor growth in xenograft nude mouse model; format: in vivo, nude mice; conditions: daily chow for DMC, 40 mg/kg for rofecoxib, n=5
Description: Once palpable tumors had formed, the animals received daily chow supplemented with DMC, rofecoxib, or no drug. Tumor size was determined every three days. Shown is the average (mean±SD) tumor volume in each group (n=5). Asterisks (**): p<0.01 between control and DMC-treated animals on day 42.

[2] = system: polyubiquitinated proteins in U251 cells; assay: Western blot of polyubiquitinated proteins, U251; format: cell-based, human; conditions: U251, increasing concentrations, 24 hours
Description: Total cell lysates were analyzed by Western blot with specific antibodies to ubiquitin, GRP78, CHOP, and caspase 4. Actin was used as a loading control. […] Note that in the caspase 4 blots several non-specific background bands were observed (consistent with similar observations in the literature); the specific bands were identified with the use of various controls (not shown) and comparison to the literature.
Total cell lysates were prepared and analyzed by Western blot analysis as described earlier (19). Immunohistochemical analysis of protein expression in tumor tissues was performed with the use of the Vectastain avidin-biotin complex method kit (Vector Laboratories) as described previously (32). The primary antibodies were purchased from Cell Signaling Technology or Santa Cruz Biotechnology, Inc. and used according to the manufacturers' recommendations. All immunoblots and stainings were repeated at least once to confirm the results.

Cc1ccc(C)c(-c2cc(C(F)(F)F)nn2-c2ccc(S(N)(=O)=O)cc2)c1 [DMC, 4-[5-(2,5-dimethylphenyl)-3-(trifluoromethyl)-1H-pyrazol-1-yl]benzenesulfonamide]
tumor growth on longer-term therapy [1]: significantly reduced tumor growth
accumulation of polyubiquitinated proteins [2]: did not cause substantial accumulation of polyubiquitinated proteins
